Key:
[1] = target: T1, nsVAO (vanillyl-alcohol oxidase from Novosphingobium sp.) (Novosphingobium sp., UniProt A0A3N9RU39); test: X-ray structure; assay type: binding; settings: non-covalently bound FAD
T1 construct: gene EH199_11270; SUMO tag cleaved for crystals; non-covalent FAD
T1 sequence (A0A3N9RU39 1-543): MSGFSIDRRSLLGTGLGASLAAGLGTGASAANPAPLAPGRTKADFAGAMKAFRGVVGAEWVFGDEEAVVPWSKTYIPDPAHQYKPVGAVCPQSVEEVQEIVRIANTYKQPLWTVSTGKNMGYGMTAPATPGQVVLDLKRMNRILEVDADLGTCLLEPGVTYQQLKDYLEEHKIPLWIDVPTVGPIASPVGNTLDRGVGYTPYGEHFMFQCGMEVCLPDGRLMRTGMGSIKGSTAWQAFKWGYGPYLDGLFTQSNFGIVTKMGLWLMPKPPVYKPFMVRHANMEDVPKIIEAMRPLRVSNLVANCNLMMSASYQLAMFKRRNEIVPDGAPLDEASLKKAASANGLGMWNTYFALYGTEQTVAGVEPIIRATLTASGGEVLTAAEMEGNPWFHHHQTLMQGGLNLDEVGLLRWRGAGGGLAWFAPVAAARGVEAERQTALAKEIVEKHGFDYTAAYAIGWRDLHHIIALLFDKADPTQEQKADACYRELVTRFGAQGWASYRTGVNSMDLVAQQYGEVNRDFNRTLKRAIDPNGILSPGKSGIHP

[2] = target: T2, VAD (vanillyl-alcohol dehydrogenase from Marinicaulis flavus) (Hyphococcus luteus, UniProt A0A2S7K3M2); test: X-ray structure; assay type: binding; settings: covalent (H387)
T2 construct: gene CW354_13745; SUMO tag cleaved for crystals; covalent FAD on H387; dimer
T2 sequence (A0A2S7K3M2 1-521): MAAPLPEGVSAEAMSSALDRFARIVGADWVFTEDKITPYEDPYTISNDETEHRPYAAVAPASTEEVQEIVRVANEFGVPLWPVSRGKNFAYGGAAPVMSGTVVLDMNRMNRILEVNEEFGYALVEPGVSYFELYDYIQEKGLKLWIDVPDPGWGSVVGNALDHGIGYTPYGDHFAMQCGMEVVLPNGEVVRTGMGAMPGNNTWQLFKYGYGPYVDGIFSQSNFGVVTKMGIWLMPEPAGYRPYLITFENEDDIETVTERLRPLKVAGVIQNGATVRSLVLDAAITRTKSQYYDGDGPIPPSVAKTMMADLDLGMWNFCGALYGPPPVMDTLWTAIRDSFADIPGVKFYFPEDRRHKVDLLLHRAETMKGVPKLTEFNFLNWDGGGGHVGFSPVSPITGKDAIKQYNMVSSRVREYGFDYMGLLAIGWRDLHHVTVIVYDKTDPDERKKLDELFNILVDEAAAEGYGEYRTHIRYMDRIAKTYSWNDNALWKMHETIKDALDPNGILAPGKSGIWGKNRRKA

[3] = target: T1, nsVAO (vanillyl-alcohol oxidase from Novosphingobium sp.); test: X-ray structure of soaked crystal; assay type: binding; settings: […] vanillyl alcohol soak, […] min; active site
[4] = target: T3, VAD (vanillyl-alcohol dehydrogenase from Marinicaulis flavus) (Hyphococcus luteus, UniProt A0A2S7K3M2, P151L); test: anaerobic stopped-flow reductive half-reaction; assay type: biochemical; settings: 25 °C, 50 mM potassium phosphate pH 7.5, 150 mM NaCl, oxidized enzyme
T3 construct: gene CW354_13745; SUMO tag cleaved for crystals; covalent FAD on H387; dimer
T3 sequence (A0A2S7K3M2 entry or part of it P151L): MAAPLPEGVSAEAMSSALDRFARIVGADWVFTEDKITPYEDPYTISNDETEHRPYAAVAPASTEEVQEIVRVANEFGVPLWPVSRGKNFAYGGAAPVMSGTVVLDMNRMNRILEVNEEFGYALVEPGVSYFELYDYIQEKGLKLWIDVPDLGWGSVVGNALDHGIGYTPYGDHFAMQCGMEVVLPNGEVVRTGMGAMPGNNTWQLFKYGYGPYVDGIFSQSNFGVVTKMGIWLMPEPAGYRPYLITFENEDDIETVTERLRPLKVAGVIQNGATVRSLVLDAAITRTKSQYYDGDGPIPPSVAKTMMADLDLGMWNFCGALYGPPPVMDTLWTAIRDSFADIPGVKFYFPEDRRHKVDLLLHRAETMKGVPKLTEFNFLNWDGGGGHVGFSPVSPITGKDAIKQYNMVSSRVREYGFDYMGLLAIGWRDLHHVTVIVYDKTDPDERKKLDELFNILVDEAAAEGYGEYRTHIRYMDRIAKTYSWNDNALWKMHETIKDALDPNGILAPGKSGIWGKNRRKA
Excerpt: (§1) anaerobic stopped-flow reductive half-reaction on VAD (vanillyl-alcohol dehydrogenase from Marinicaulis flavus)

[5] = target: T2, VAD (vanillyl-alcohol dehydrogenase from Marinicaulis flavus); test: anaerobic stopped-flow reductive half-reaction; assay type: biochemical; settings: 25 °C, 50 mM potassium phosphate pH 7.5, 150 mM NaCl, oxidized enzyme
Excerpt: as §1

[6] = target: T3, VAD (vanillyl-alcohol dehydrogenase from Marinicaulis flavus); test: X-ray structure of soaked crystal; assay type: binding; settings: 1 mM eugenol soak, 2 min; active site, flavin si side

Compound: Cc1cc2nc3c(=O)[nH]c(=O)nc-3n(C[C@H](O)[C@H](O)[C@H](O)COP(=O)(O)OP(=O)(O)OC[C@H]3O[C@@H](n4cnc5c(N)ncnc54)[C@H](O)[C@@H]3O)c2cc1C [FAD]
- X-ray structure [1]: Its crystal structure confirms that FAD is non-covalently bound
- X-ray structure [2]: FAD carbons are in yellow, wild-type carbons in orange

Compound: COc1cc(CO)ccc1O [Vanillyl alcohol]
- X-ray structure of soaked crystal [3]: Vanillyl alcohol bound to wild type nsVAO is shown with blue carbons.
- Kd [4]: 1060 ± 80 µM
- Kd [5]: 24.2 ± 3.3 µM

Compound: C=CCc1ccc(O)c(OC)c1 [Eugenol]
- X-ray structure of soaked crystal [6]: P151L VAD-eugenol, wild type nsVAO-vanillyl alcohol and T181D nsVAO-vanillin complexes were prepared by soaking crystals
